Laboratory results taken from patent publication EP0715850A1, “Use of proline and/or derivatives as an antihepatitis agent” (RESEARCH DEVELOPMENT CORPORATION OF JAPAN, priority 1994, dated 1996).
Like-named read-outs stand apart in the source and are kept apart here.

How the values were obtained:
[1] = system: rats suffering galactosamine induced fulminant hepatitis; details: blood sampled 36 hours after galactosamine; Pre-Pro and Post-Pro groups, proline 2.0 g/kg oral
Protocol: The effect of administration of proline on transamylase activity in blood of rats suffering galactosamine induced fulminant hepatitis was investigated.
Blood was sampled from each of the four groups of rats (GalN, Control, Pre-Pro, and Post-Pro) of Example 1, upon the lapse of 36 hours after administration of galactosamine, and activity of transamylase in blood (glutamic-oxaloacetic acid transamylase: GOT; glutamic-pyruvic acid transamylase: GPT) was measured in accordance with the conventional method.

[2] = system: LEC rat which spontaneously develops hepatitis, cirrhosis and hepatoma; experiment: death rate and jaundice of LEC rats that spontaneously develop hepatitis; format: in vivo
Description: An effect of proline was investigated by using LEC rat which spontaneously develops hepatitis, cirrhosis and hepatoma.
Weanlings of LEC rats (seven weeks of age: food deprived for one week before testing) were divided into 2 groups, and copper deficiency feed and normal feed were presented to the groups, respectively. The rats of 2 groups were further divided into 3 groups: group of free drinking of proline solution (0.2M of proline in distilled water); group of oral administration of proline solution (135-150 mg of proline/day); and group of free drinking of water. Death rate of 6 groups of rats were measured. A relationship between the amount of proline solution consumed by rats and the degree of jaundice of the rats was also measured.

[3] = system: rats suffering galactosamine induced fulminant hepatitis; details: ten days after galactosamine
Protocol: Because of the similarity of pathological findings to those of human hepatitis and a large number of patients, experiments were carried out on the effect of administration of proline on the survival rate of rats suffering galactosamine induced fulminant hepatitis commonly used as a hepatitis model.
Fisher strain rats (male; eight weeks of age; body weight: 160 to 190 g) were divided into four groups each comprising nine rats. Rats of three groups were administered with 30% galactosamine hydrochloride-saline through intraperitoneal administration (1.4 g/kg body weight) to form fulminant hepatitis models (GalN), and only saline was administered to the remaining group to form a control group.
For 12 hours before and after administration of galactosamine, the rats were fasted, and from 12 hours prior to administration of galactosamine through six hours thereafter, the rats were caused to freely ingest 10% glucose aqueous solution.

What does the source list for `O=C(O)[C@@H]1CCCN1` [Proline, proline]?
increase in the concentration of GOT in blood [1]: largely inhibited; increase in the concentration of GPT in blood [1]: largely inhibited; degree of jaundice ([2]; LEC rats ingesting proline solution, Fig. 3): diminished the jaundice; Death rate ([2]; copper deficiency feed, free drinking of proline solution (0.2M in distilled water)): 0%; Death rate ([2]; copper deficiency feed, oral administration of proline solution (135-150 mg of proline/day)): 0%; Death rate ([2]; normal feed, free drinking of proline solution (0.2M in distilled water)): 85%; Death rate ([2]; normal feed, oral administration of proline solution (135-150 mg of proline/day)): 57%; survival rate ([3]; post-administration (Post-Pro) group: proline 2.0 g/kg oral at 6, 12 and 24 hours after galactosamine (1.4 g/kg i.p.), 7/9): 78%; survival rate ([3]; pre-administration (Pre-Pro) group: proline 2.0 g/kg oral one hour prior to and 12 and 24 hours after galactosamine (1.4 g/kg i.p.), 9/9): 100%
